Target: T1, GAT-1 (Homo sapiens, UniProt P30531)
T1 construct: expressed in transfected cells; host or cells: SH-SY5Y (human neuroblastoma cell line), transient transfection with Lipofectamine 3000
Experiment: Tritiated [3H]GABA uptake assay in transfected SH-SY5Y cells
Format: cell-based
Conditions: CI-966 100 μM in 0.8% DMSO, 10 min at 37° C.
Description: SH-SY5Y cells (human neuroblastoma cell line) were transfected with the constructs as described in Example 1 using Lipofectamine 3000 and following manufacturer instructions. The positive control consisted of a plasmid encoding hSLC6A1 under the control of a CAG promoter expressed together with a tagRFP fluorescent protein whilst as negative control (and a matching plasmid lacking the hSLC6A1 sequence. At 2 days post transfection, SH-SY5Y cells were attested for either ICC analysis of GABA uptake assay. Briefly, ICC analysis was performed as follow: cells were fixed with 4% paraformaldehyde and stained with the primary antibodies rabbit monoclonal anti-GAT-1 (Ref: ab177483; Abcam™, Cambridge, MA, USA) at 1:250. Cells were then stained with goat anti-rabbit secondary antibodies conjugated to Alexa Fluor 488 at 1:1,000 prior to imaging. For the GABA uptake assay, cells were previously seeded on scintillating microplates. […] Cells were then treated with a mixture of tritiated and cold GABA ([3H]GABA 8 μCi/ml and 15 μM GABA final concentrations) for 10 min at 37° C. and the reaction was stopped using 1 mM cold GABA before quantification of the radioactivity with a Microbeta instrument (Perkin Elmer).

T1 sequence (P30531 whole entry): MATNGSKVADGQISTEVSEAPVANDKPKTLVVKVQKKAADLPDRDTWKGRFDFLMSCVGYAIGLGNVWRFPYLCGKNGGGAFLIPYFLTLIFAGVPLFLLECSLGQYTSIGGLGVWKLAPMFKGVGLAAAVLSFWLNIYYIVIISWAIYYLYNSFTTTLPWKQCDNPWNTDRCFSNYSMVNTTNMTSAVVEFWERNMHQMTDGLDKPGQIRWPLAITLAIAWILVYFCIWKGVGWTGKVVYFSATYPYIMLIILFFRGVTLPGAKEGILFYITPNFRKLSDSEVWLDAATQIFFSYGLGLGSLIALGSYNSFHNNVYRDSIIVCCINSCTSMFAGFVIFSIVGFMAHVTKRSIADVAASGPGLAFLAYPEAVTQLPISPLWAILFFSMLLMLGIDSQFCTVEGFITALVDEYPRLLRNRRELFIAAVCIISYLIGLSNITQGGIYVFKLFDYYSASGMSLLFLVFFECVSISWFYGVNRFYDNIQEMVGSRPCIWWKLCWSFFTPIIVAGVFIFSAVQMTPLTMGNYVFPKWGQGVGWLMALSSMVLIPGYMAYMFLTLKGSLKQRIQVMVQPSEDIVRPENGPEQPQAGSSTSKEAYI

O=C(O)C1=CCCN(CCOC(c2ccc(C(F)(F)F)cc2)c2ccc(C(F)(F)F)cc2)C1 [GAT-1 inhibitor]
uptake of [3H]GABA when cells treated with inhibitor: inhibited

From patent US20230365652A1, “Nucleic Acid Constructs, Viral Vectors and Viral Particles” (priority 2020, published 2023)
